Assay type in all cases: biochemical
Assay [1] addresses T1, MARK4 (Homo sapiens, UniProt Q96L34).
T1 sequence (Q96L34 1-752): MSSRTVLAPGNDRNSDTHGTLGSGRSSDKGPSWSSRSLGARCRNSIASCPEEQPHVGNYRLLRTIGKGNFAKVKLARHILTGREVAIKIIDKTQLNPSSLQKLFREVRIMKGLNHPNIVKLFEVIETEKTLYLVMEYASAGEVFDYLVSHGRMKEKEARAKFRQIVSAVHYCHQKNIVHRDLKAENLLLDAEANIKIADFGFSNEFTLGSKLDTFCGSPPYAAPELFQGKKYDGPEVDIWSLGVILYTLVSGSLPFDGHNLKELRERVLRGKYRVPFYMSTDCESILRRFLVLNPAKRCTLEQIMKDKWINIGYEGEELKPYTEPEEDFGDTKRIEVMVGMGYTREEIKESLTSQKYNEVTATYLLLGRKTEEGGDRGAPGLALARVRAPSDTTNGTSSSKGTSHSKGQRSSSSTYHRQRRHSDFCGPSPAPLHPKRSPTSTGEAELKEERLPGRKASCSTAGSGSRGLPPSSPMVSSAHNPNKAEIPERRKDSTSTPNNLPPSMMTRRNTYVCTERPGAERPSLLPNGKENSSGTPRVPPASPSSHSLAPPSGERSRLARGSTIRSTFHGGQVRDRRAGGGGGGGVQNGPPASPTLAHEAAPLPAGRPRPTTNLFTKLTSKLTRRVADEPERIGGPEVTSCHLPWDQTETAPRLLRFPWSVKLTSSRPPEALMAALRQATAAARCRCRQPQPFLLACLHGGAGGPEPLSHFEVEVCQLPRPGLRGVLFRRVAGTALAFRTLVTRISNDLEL
Kind of assay: Kinase profiling MARK4. As to conditions: for remaining activity at 100 µM: read-out: residual kinase activity, MARK4. An excerpt:
(§1) Any value less that 25 is considered to be highly significant inhibition.

The target in assay [2] is T2, NEK2a (Homo sapiens, UniProt P51955).
T2 sequence (P51955 1-445): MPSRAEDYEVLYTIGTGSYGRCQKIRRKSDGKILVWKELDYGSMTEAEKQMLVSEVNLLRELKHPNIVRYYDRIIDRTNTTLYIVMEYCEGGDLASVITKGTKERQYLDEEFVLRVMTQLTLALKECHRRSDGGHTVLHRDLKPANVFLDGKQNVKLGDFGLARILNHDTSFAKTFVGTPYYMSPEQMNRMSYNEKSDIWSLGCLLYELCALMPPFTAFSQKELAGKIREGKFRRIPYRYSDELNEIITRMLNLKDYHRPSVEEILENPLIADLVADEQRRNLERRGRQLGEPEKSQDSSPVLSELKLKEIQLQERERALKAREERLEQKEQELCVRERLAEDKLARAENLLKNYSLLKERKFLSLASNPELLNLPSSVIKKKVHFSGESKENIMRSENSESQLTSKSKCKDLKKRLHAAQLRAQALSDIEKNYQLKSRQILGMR
Description: Kinase profiling NEK2a. The settings on record: for remaining activity at 100 µM: read-out: residual kinase activity, NEK2a.
Source text: as §1

For assay [3], the target named is T3, IKKb (Homo sapiens, UniProt O14920).
T3 sequence (O14920 1-756): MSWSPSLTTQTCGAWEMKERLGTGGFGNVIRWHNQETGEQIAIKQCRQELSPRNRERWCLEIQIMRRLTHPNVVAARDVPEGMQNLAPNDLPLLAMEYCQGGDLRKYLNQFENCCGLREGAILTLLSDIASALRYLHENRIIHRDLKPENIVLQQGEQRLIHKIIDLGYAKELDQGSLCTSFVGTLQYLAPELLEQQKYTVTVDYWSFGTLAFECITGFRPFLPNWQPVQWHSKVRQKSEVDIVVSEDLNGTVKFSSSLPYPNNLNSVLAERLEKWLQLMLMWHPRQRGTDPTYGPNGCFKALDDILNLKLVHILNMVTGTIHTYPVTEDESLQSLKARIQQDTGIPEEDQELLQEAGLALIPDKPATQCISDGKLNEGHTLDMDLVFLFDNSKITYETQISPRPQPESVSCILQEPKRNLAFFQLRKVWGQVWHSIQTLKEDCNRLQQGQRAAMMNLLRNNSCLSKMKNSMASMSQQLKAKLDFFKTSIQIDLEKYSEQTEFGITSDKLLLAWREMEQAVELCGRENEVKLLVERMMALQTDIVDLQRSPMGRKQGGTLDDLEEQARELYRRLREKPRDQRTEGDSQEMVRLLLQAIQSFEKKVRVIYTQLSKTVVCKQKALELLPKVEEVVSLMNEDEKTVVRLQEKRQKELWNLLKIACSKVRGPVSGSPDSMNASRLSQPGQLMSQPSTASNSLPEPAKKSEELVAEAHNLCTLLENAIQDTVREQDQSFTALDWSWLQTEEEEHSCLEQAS
Description: Kinase profiling IKKb. The settings on record: for remaining activity at 100 µM: read-out: residual kinase activity, IKKb.
Source text: as §1

The target in assay [4] is T4, EPH-B4 (Homo sapiens, UniProt P54760).
T4 sequence (P54760 16-987): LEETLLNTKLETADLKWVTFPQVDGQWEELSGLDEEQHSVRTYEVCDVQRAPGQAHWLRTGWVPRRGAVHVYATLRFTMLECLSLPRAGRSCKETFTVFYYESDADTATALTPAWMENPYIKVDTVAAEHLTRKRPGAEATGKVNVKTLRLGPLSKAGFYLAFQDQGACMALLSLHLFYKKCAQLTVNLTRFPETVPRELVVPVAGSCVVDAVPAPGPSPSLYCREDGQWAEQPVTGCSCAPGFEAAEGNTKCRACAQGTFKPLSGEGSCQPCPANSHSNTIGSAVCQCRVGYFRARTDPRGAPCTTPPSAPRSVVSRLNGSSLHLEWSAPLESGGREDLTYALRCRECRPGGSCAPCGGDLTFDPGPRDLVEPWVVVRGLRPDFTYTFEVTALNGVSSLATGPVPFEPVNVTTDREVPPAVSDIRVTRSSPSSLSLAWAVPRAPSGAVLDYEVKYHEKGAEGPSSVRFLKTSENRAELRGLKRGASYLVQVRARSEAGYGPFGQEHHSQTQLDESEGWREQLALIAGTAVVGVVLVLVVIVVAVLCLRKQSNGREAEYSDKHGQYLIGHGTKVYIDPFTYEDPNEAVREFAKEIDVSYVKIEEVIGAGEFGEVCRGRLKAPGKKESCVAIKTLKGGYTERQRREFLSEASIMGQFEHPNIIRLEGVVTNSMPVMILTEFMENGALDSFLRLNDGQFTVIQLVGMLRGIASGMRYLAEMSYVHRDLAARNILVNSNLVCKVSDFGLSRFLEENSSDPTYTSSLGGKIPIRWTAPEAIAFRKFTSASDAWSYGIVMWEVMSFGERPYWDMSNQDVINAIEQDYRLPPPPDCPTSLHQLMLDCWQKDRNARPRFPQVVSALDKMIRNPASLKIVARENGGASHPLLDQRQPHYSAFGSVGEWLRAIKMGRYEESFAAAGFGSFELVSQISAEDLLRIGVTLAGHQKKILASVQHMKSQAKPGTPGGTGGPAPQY
Description: Kinase profiling EPH-B4. As to conditions: for remaining activity at 100 µM: read-out: residual kinase activity, EPH-B4.
Source text: as §1

Assay [5] has as its target IR (Homo sapiens, UniProt P06213). Kind of assay: Kinase profiling IR. As to conditions: for remaining activity at 100 µM: read-out: residual kinase activity, IR.
Source text: as §1

[6] abbreviates: 100 micromolar inhibitor concentration, 100 is no change.
Where [7] appears, read: 100 micromolar inhibitor, 100 = no change.

The source of these data is patent US10231954B2, “Neurodegenerative therapies” (LYTIX BIOPHARMA AS, priority 2014, dated 2019).

The structures appear in SMILES notation. Like-named read-outs stand apart in the source and are kept apart here.

IR, sequence (P06213 28-1382): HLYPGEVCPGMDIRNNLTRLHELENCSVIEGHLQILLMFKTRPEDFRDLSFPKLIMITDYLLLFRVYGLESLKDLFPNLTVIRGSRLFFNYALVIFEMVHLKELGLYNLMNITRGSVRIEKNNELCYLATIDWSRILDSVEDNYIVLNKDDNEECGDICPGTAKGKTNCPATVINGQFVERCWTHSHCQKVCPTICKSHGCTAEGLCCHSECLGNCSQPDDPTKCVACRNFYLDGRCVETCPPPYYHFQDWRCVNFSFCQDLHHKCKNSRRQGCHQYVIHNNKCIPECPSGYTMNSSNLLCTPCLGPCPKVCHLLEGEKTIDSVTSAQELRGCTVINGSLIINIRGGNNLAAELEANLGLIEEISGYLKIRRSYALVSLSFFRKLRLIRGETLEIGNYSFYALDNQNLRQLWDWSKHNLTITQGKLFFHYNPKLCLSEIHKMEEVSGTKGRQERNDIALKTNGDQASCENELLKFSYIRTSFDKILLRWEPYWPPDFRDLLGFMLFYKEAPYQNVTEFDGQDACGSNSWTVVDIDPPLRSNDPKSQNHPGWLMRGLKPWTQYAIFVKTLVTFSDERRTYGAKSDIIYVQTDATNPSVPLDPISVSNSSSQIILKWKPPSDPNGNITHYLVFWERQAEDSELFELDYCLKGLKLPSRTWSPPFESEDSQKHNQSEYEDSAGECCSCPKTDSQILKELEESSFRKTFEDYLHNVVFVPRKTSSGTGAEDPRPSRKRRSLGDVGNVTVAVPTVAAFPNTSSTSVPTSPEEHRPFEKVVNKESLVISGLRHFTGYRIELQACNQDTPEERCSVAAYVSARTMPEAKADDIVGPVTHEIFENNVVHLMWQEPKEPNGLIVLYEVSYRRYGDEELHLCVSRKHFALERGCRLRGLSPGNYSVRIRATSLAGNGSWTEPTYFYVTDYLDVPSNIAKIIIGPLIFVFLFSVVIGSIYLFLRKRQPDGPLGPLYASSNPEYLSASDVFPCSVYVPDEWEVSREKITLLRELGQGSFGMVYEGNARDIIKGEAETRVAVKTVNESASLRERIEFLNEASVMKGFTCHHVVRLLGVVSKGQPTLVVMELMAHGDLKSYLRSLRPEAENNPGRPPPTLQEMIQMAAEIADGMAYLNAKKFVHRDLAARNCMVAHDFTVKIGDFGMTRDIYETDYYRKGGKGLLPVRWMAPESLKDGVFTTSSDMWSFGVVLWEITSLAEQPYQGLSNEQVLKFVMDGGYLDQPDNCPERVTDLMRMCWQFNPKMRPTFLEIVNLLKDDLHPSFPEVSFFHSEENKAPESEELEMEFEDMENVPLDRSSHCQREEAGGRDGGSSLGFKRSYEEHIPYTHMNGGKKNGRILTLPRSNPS

As for `CC(=O)Nc1nc2cc(O)ccc2s1` [Compound 01-66, N-(5-hydroxybenzo[d]thiazol-2-yl)acetamide], the remaining activity at 100 µM in assay [1] stood at 80%; in assay [2], 85%; in assay [3], 62%; in assay [4], 83%; in assay [5], 63%.
For `CC(=O)Nc1nc2ccc(O)cc2s1` [Compound 01-71], the remaining activity at 100 µM came to 66% in assay [1] (setting [6]); 75% in assay [2] (setting [6]); 63% in assay [3] (setting [6]); 98% in assay [4] (setting [6]); 35% in assay [5] (setting [6]).
In the case of `CC(=O)Nc1nc2ccc(C(F)(F)F)cc2s1` [Compound 01-90], the remaining activity at 100 µM worked out at 66% in assay [1] (setting [6]); 78% in assay [2] (setting [6]); 75% in assay [3] (setting [6]); 55% in assay [4] (setting [6]); 84% in assay [5] (setting [6]).
Regarding `CC(=O)Nc1nc2ccc(C#N)cc2s1` [Compound 01-94], the remaining activity at 100 µM in assay [1] (setting [6]) turned out to be 51%; in assay [2] (setting [6]) it was 60%; in assay [3] (setting [6]), 58%; in assay [4] (setting [6]) it was 62%; in assay [5] (setting [6]), 81%.
As to `CC(=O)Nc1cccc(NC(=O)c2nc3ccc(O)cc3s2)c1` [Compound 03-07, N-(3-acetamidophenyl)-6-hydroxybenzo[d]thiazole-2-carboxamide], the remaining activity at 100 µM in assay [1] (setting [7]) is 71%; in assay [2] (setting [7]) it was 38%; in assay [3] (setting [7]) it was 88%; in assay [4] (setting [7]), 100%; in assay [5] (setting [7]), 66%.
Regarding `O=C(Nc1nc2cc(O)ccc2s1)c1ccncc1` [Compound 03-11], in assay [1] (setting [6]), the “residual kinase activity, MARK4” value came to 102. The “residual kinase activity, NEK2a” value in assay [2] (setting [6]) amounted to 93. The “residual kinase activity, IKKb” value in assay [3] (setting [6]) was 80. The “residual kinase activity, EPH-B4” value in assay [4] (setting [6]) was 97. Moreover, the “residual kinase activity, IR” value in assay [5] (setting [6]) is reported as 106.
`O=C(Nc1nc2ccc(O)cc2s1)c1ccccn1` [Compound 03-12]: the “residual kinase activity, MARK4” value in assay [1] (setting [6]) came to 90. The “residual kinase activity, NEK2a” value in assay [2] (setting [6]) stood at 92. Also, in assay [3] (setting [6]), the “residual kinase activity, IKKb” value came to 84. Further, the “residual kinase activity, EPH-B4” value in assay [4] (setting [6]) is given as 84. Also, the “residual kinase activity, IR” value in assay [5] (setting [6]) turned out to be 27.
For `O=C(Nc1nc2cc(O)ccc2s1)c1ccccn1` [Compound 03-13], the “residual kinase activity, MARK4” value in assay [1] (setting [6]) was found to be 71. The “residual kinase activity, NEK2a” value in assay [2] (setting [6]) came out at 89. Further, in assay [3] (setting [6]), the “residual kinase activity, IKKb” value stood at 88. In addition, the “residual kinase activity, EPH-B4” value in assay [4] (setting [6]) is recorded as 88. Further, in assay [5] (setting [6]), the “residual kinase activity, IR” value stood at 74.
`COc1ccc2sc(NC(C)=O)nc2c1` [Compound 03-21]: the remaining activity at 100 µM in assay [1] (setting [6]) was found to be 100%; in assay [2] (setting [6]), 93%; in assay [3] (setting [6]), 98%; in assay [4] (setting [6]), 98%; in assay [5] (setting [6]), 109%.
Take `CC(=O)Nc1nc2ccccc2s1` [Compound 03-32]: the “residual kinase activity, MARK4” value in assay [1] (setting [6]) is given as 91. In addition, the “residual kinase activity, NEK2a” value in assay [2] (setting [6]) was 90. Further, in assay [3] (setting [6]), the “residual kinase activity, IKKb” value is on record as 75. Besides, the “residual kinase activity, EPH-B4” value in assay [4] (setting [6]) turned out to be 99. Further, the “residual kinase activity, IR” value in assay [5] (setting [6]) was 87.
With `O=C(Nc1nc2cc(O)ccc2s1)c1cccnc1` [Compound 03-33], the “residual kinase activity, MARK4” value in assay [1] (setting [6]) was 95. Moreover, in assay [2] (setting [6]), the “residual kinase activity, NEK2a” value is on record as 99. Moreover, the “residual kinase activity, IKKb” value in assay [3] (setting [6]) is 81. In addition, the “residual kinase activity, EPH-B4” value in assay [4] (setting [6]) came out at 106. Further, the “residual kinase activity, IR” value in assay [5] (setting [6]) amounted to 105.
For `O=C(Nc1nc2ccc(O)cc2s1)c1ccccc1` [Compound 03-60], the “residual kinase activity, MARK4” value in assay [1] (setting [6]) was 67. Also, in assay [2] (setting [6]), the “residual kinase activity, NEK2a” value was 64. Also, in assay [3] (setting [6]), the “residual kinase activity, IKKb” value was 87. For the same compound, in assay [4] (setting [6]), the “residual kinase activity, EPH-B4” value amounted to 110. Moreover, the “residual kinase activity, IR” value in assay [5] (setting [6]) worked out at 31.
Regarding `CC(=O)Nc1nc2cc(C(F)(F)F)ccc2s1` [Compound 03-73], the remaining activity at 100 µM in assay [1] (setting [6]) came out at 97%; in assay [2] (setting [6]) it was 94%; in assay [3] (setting [6]) it was 94%; in assay [4] (setting [6]), 101%; in assay [5] (setting [6]), 102%.
Turning to `CC(=O)Nc1nc2cc(C)ccc2s1` [Compound 03-76], the “residual kinase activity, MARK4” value in assay [1] (setting [6]) is 80. In assay [2] (setting [6]), the “residual kinase activity, NEK2a” value is on record as 95. The “residual kinase activity, IKKb” value in assay [3] (setting [6]) was 59. Moreover, the “residual kinase activity, EPH-B4” value in assay [4] (setting [6]) stood at 109. In addition, the “residual kinase activity, IR” value in assay [5] (setting [6]) is on record as 97.
